Assay results from US20250271426A1, “REDUCTION OF BITTER TASTE OF ACTIVE PHARMACEUTICAL INGREDIENTS AND RELATED ASSAYS AND SCREENING METHODS” (Firmenich Incorporated, priority 2022, published 2025).

Tests used:
Test in all cases: FLIPR calcium assay, cells with promiscuous G protein transfected with bitter receptor cDNA
Assay type in all cases: cell-based
Conditions in all cases: responsive if cellular response of >10% over baseline, Fluo4-AM
[1] = biological target: T1, T2R receptor SEQ ID NO: 5 (S5) (Homo sapiens, UniProt P59534)
T1 construct: expressed in transfected cells; host or cells: cells expressing a promiscuous G protein (e.g., G16g44)
T1 sequence (P59534 18-338): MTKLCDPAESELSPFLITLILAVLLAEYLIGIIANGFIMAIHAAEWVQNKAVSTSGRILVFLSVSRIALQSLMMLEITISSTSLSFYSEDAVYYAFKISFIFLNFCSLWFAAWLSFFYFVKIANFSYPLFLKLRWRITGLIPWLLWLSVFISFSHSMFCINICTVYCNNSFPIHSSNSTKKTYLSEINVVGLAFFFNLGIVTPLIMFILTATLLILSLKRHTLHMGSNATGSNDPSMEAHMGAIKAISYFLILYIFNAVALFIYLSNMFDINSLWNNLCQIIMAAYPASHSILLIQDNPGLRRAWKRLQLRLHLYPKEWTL
Procedure: (§1) Cells expressing a promiscuous G protein (e.g., G16g44) were transfected with vectors encoding 22 functional bitter receptor cDNAs, with one receptor per transfection. The cells were transfected directly in 384-well format high-density plates and incubated for 28 hours. Later, cells were loaded with the Ca-specific dye Fluo4-AM. After an incubation of 60 minutes, excess dye is washed off, and cells are stimulated with respective bitter agonists while simultaneously recording changes in intracellular fluorescence using a FLIPR instrument.
(§2) The above protocol was carried out using 94 different active pharmaceutical ingredients (APIs) that span a wide range of different APIs having a diversity of chemical structures. A particular T2R receptor was identified as being responsive to a particular API if it triggered a cellular response of >10% over baseline.

[2] = biological target: T2, T2R receptor SEQ ID NO: 3 (S3) (Homo sapiens, UniProt Q9NYW0, T156M)
T2 construct: expressed in transfected cells; host or cells: cells expressing a promiscuous G protein (e.g., G16g44)
T2 sequence (Q9NYW0 1-307 T156M): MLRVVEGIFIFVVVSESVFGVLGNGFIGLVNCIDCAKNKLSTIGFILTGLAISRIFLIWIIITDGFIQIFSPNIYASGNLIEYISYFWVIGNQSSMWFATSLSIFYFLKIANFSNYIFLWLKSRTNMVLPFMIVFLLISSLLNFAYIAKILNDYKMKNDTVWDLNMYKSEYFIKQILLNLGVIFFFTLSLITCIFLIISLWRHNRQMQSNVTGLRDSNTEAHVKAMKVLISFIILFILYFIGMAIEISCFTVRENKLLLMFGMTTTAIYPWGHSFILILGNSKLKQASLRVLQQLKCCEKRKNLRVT
Procedure: as §1, §2

[3] = biological target: T3, T2R receptor SEQ ID NO: 6 (S6) (Homo sapiens, UniProt P59540)
T3 construct: expressed in transfected cells; host or cells: cells expressing a promiscuous G protein (e.g., G16g44)
T3 sequence (P59540 1-309): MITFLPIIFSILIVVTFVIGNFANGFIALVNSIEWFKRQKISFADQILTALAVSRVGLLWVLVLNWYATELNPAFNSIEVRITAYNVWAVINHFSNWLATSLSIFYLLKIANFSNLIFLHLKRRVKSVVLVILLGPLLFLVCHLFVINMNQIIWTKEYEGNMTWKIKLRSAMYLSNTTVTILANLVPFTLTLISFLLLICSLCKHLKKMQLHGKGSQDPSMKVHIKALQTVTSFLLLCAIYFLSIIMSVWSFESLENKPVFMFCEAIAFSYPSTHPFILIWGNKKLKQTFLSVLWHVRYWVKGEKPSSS
Procedure: as §1, §2

[4] = biological target: T4, T2R receptor SEQ ID NO: 1 (S1) (Homo sapiens, UniProt Q9NYW7)
T4 construct: expressed in transfected cells; host or cells: cells expressing a promiscuous G protein (e.g., G16g44)
T4 sequence (Q9NYW7 1-299): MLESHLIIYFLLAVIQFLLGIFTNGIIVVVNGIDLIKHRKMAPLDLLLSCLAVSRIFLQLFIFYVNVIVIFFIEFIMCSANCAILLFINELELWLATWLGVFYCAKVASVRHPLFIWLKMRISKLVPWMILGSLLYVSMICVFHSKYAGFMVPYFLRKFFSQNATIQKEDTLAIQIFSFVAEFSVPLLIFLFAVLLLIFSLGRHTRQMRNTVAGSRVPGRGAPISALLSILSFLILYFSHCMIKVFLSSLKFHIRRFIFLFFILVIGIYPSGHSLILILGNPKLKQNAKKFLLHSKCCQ
Procedure: as §1, §2

[5] = biological target: T5, T2R receptor SEQ ID NO: 4 (S4) (Homo sapiens, UniProt Q9NYV8)
T5 construct: expressed in transfected cells; host or cells: cells expressing a promiscuous G protein (e.g., G16g44)
T5 sequence (Q9NYV8 1-317): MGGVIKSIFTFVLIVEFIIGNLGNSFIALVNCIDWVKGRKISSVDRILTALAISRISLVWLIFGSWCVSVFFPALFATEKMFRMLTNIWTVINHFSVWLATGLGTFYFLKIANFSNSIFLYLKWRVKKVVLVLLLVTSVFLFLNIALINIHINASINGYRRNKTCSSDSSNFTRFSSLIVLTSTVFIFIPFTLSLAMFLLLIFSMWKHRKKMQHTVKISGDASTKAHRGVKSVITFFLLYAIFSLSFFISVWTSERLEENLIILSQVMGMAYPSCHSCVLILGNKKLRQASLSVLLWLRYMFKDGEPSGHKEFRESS
Procedure: as §1, §2

Structure (SMILES) | S5 positive response of T2R receptor to API [1] | S3 positive response of T2R receptor to API [2] | S6 positive response of T2R receptor to API [3] | S1 positive response of T2R receptor to API [4] | S4 positive response of T2R receptor to API [5]
CC(CCc1ccccc1)NCC(O)c1ccc(O)c(C(N)=O)c1 (stereo not shown) [Labetalol] | + (a “+” to indicate whether a particular T2R receptor showed a positive response to a particular API) | + (a “+” to indicate whether a particular T2R receptor showed a positive response to a particular API) | + (a “+” to indicate whether a particular T2R receptor showed a positive response to a particular API) | – | –
COC(=O)[C@@H]1[C@H]2C[C@H]3c4[nH]c5ccccc5c4CCN3C[C@@H]2CC[C@@H]1O [Yohimbine] | – | + (a “+” to indicate whether a particular T2R receptor showed a positive response to a particular API) | + (a “+” to indicate whether a particular T2R receptor showed a positive response to a particular API) | + (a “+” to indicate whether a particular T2R receptor showed a positive response to a particular API) | –
COCCCC/C(=N\OCCN)c1ccc(C(F)(F)F)cc1 [Fluvoxamine] | – | – | – | + (a “+” to indicate whether a particular T2R receptor showed a positive response to a particular API) | –
Cc1cc(N)c2ccccc2[n+]1CCCCCCCCCC[n+]1c(C)cc(N)c2ccccc21 [Dequalinium] | + (a “+” to indicate whether a particular T2R receptor showed a positive response to a particular API) | – | + (a “+” to indicate whether a particular T2R receptor showed a positive response to a particular API) | – | –
CC(=O)Nc1ccc(O)cc1 [Acetaminophen] | + (a “+” to indicate whether a particular T2R receptor showed a positive response to a particular API) | – | – | – | –
CC[N+](C)(C)c1cccc(O)c1 [Edrophonium] | + (a “+” to indicate whether a particular T2R receptor showed a positive response to a particular API) | – | + (a “+” to indicate whether a particular T2R receptor showed a positive response to a particular API) | + (a “+” to indicate whether a particular T2R receptor showed a positive response to a particular API) | –
C=CC[C@@H]1/C=C(\C)C[C@H](C)C[C@H](OC)[C@H]2O[C@@](O)(C(=O)C(=O)N3CCCC[C@H]3C(=O)O[C@H](/C(C)=C/[C@@H]3CC[C@@H](O)[C@H](OC)C3)[C@H](C)[C@@H](O)CC1=O)[C@H](C)C[C@@H]2OC [Fujimycin] | – | – | – | + (a “+” to indicate whether a particular T2R receptor showed a positive response to a particular API) | –
COC(=O)[C@H](c1ccccc1Cl)N1CCc2sccc2C1 [Clopidogrel] | – | + (a “+” to indicate whether a particular T2R receptor showed a positive response to a particular API) | – | + (a “+” to indicate whether a particular T2R receptor showed a positive response to a particular API) | –
CC12CCC(CC1)C(C)(C)O2 [Eucalyptol] | – | – | – | + (a “+” to indicate whether a particular T2R receptor showed a positive response to a particular API) | + (a “+” to indicate whether a particular T2R receptor showed a positive response to a particular API)
C=C[C@H]1C[N@@]2CC[C@H]1C[C@H]2[C@H](O)c1ccnc2ccc(OC)cc12 [Quinine] | + (a “+” to indicate whether a particular T2R receptor showed a positive response to a particular API) | + (a “+” to indicate whether a particular T2R receptor showed a positive response to a particular API) | + (a “+” to indicate whether a particular T2R receptor showed a positive response to a particular API) | – | + (a “+” to indicate whether a particular T2R receptor showed a positive response to a particular API)
CCN(CC)CCNC(=O)c1ccc(N)cc1 [Procaineamide] | + (a “+” to indicate whether a particular T2R receptor showed a positive response to a particular API) | + (a “+” to indicate whether a particular T2R receptor showed a positive response to a particular API) | + (a “+” to indicate whether a particular T2R receptor showed a positive response to a particular API) | – | –
CCN(CC)CC#CCOC(=O)C(O)(c1ccccc1)C1CCCCC1 (stereo not shown) [Oxybutynin Chloride] | + (a “+” to indicate whether a particular T2R receptor showed a positive response to a particular API) | + (a “+” to indicate whether a particular T2R receptor showed a positive response to a particular API) | + (a “+” to indicate whether a particular T2R receptor showed a positive response to a particular API) | – | + (a “+” to indicate whether a particular T2R receptor showed a positive response to a particular API)
CC1(C)S[C@@H]2[C@H](NC(=O)[C@H](N)c3ccc(O)cc3)C(=O)N2[C@H]1C(=O)O [Amoxicillin] | – | – | – | + (a “+” to indicate whether a particular T2R receptor showed a positive response to a particular API) | –
CCCCc1ncc(/C=C(\Cc2cccs2)C(=O)O)n1Cc1ccc(C(=O)O)cc1 [Eprosartan] | – | – | – | + (a “+” to indicate whether a particular T2R receptor showed a positive response to a particular API) | –
COc1cc2c(c(OC)c1OC)-c1ccc(OC)c(=O)cc1[C@@H](NC(C)=O)CC2 [Colchicine] | + (a “+” to indicate whether a particular T2R receptor showed a positive response to a particular API) | – | + (a “+” to indicate whether a particular T2R receptor showed a positive response to a particular API) | – | –
Cc1cc(NS(=O)(=O)c2ccc(N)cc2)no1 [Sulfamethoxazole] | – | – | – | + (a “+” to indicate whether a particular T2R receptor showed a positive response to a particular API) | –
CC(=O)Oc1ccc(C(c2ccc(OC(C)=O)cc2)c2ccccn2)cc1 [Bisacodyl] | – | – | + (a “+” to indicate whether a particular T2R receptor showed a positive response to a particular API) | + (a “+” to indicate whether a particular T2R receptor showed a positive response to a particular API) | + (a “+” to indicate whether a particular T2R receptor showed a positive response to a particular API)
